What was measured:
[1] = test system: MC3T3-E1 cells; experiment: mineralization by Alizarin red-S staining; type: cell-based; settings: 4 weeks, 5 Mm glycerol phosphate and 1 μg/ml rhBMP-2, 2.5 Mm NMP vs no NMP
Procedure: Alizarin red-S staining was performed after 4 weeks according to Bodine, P. V. N., et al. [J Bone Mineral Res 11 (1996) 806–819].

[2] = molecular target: T1, rhBMP-2 dimers (Homo sapiens, UniProt P12643); experiment: solubilization of rhBMP-2 pellets in phosphate buffered saline with pyrrolidones; settings: 2 h in phosphate buffered saline with increasing amounts of pyrrolidone
T1 sequence (P12643 283-396): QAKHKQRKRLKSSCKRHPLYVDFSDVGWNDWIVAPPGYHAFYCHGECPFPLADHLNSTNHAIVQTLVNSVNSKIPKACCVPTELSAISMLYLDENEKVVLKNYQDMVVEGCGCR
Procedure: Two to twenty micrograms of the rhBMP protein was lyophilized in a speed-vac to form a solid rhBMP disc. […] After 2 h the protein in the remaining disc was sedimented (22,000×g, 30 min) and the protein content of 20 μl from the supernatant determined by a slot-blot method (Weber, F. E., et al., 2002, supra).

[3] = test system: C3H10T1/2 cells; experiment: alkaline phosphatase activity in mesenchymal stem cell line; type: cell-based, murine; settings: C3H10T1/2 cells treated with up to 5 mM NMP; data not shown
Procedure: (§1) MC3T3-E1 cells were grown in an alpha-modified Minimum Essential Medium (Life Technologies, Inc., Grand Island, N.Y.) containing 10% fetal calf serum (Life Technologies, Inc.), 50 μg/ml gentamycin, and 50 μg/ml ascorbic acid. C3H10T1/2 cells were grown in basal medium Eagle, and 50 μg/ml gentamycin. To examine the action of NMP on both cell lines, 1×10^5 cells per well were plated in 6-well plates and NMP subsequently added. Medium exchange was performed after 3 days and alkaline phosphatase (ALP) was determined according to Lowry, O. et al. [J. Biol. Chem. 207 (1954) 19–37]: p-nitrophenol liberated was converted to p-nitrophenylate by adding 400 μl of 1 M NaOH, which was quantitated by measuring the absorbance at 410 nm (epsilon=17500/molxcm). Alkaline phosphatase activity was normalized to total protein and expressed as nmol nitrophenylate generated per min per mg protein.
(§2) First, to verify the osteoinductive activity of NMP an embryonic, murine, mesenchymal stem cell line C3H10T1/2 and a preosteoblastic cell line MC3T3-E1 were used and cultured as described above. C3H10T1/2 cells can differentiate into cartilage, bone or adipose cells, whereas MC3T3-E1 produces and releases autologous BMP. Alkaline phosphatase activity was used as a marker for the differentiation into the osteoblastic lineage.

[4] = test system: MC3T3-E1 cells; experiment: alkaline phosphatase activity as marker of maturation of preosteoblastic cell line; type: cell-based
Procedure: as §1
as §2, with “lineage. […]” for “lineage.”

SMILES | mineralisation (alizarin-S-staining) [1] | potential to solubilize rhBMP-2, grading in declining order [2] | alkaline phosphatase activity [3] | maturation determined by alkaline phosphatase activity, concentration dependence ([4]; after 6 days, 0 to 5 Mm of NMP) | increase of alkaline phosphatase activity (factor) ([4]; low doses of NMP, MC3T3-E1)
CN1CCCC1=O [NMP, 1-methyl-2-pyrrolidone] | increased mineralisation | 1-methyl-2-pyrrolidone (NMP)>1-ethyl-2-pyrrolidone (NEP)>2-pyrrolidone (PB)>1-cyclohexyl-2-pyrrolidone (CP) | not increased | increases in a concentration dependent manner | 2.5–3.0
O=C1CCCN1 [PB, 2-pyrrolidone] | – | 1-methyl-2-pyrrolidone (NMP)>1-ethyl-2-pyrrolidone (NEP)>2-pyrrolidone (PB)>1-cyclohexyl-2-pyrrolidone (CP) | – | – | –

Source: patent US7074412B2, “Pharmaceutical composition” (The University of Zurich, priority 2003, dated 2006)
